{"source": "PubChem BioAssay (NCI)", "test_in_all_cases": "DTP human tumour cell line panel, 48 h", "key": {"[1]": {"test_system": "HT29 colon"}, "[2]": {"test_system": "SK-OV-3 ovarian"}, "[3]": {"test_system": "MOLT-4 leukemia"}, "[4]": {"test_system": "M14 melanoma"}, "[5]": {"test_system": "SNB-78 CNS"}, "[6]": {"test_system": "M19-MEL melanoma"}, "[7]": {"test_system": "786-0 renal"}, "[8]": {"test_system": "IGROV1 ovarian"}, "[9]": {"test_system": "SF-539 CNS"}, "[10]": {"test_system": "NCI-H226 lung"}, "[11]": {"test_system": "HL-60(TB) leukemia"}, "[12]": {"test_system": "HOP-18 NSCLC"}, "[13]": {"test_system": "SK-MEL-5 melanoma"}, "[14]": {"test_system": "CCRF-CEM leukemia"}, "[15]": {"test_system": "OVCAR-4 ovarian"}, "[16]": {"test_system": "K-562 leukemia"}, "[17]": {"test_system": "HCC-2998 colon"}, "[18]": {"test_system": "KM20L2 colon"}, "[19]": {"test_system": "HCT-116 colon"}, "[20]": {"test_system": "EKVX NSCLC"}, "[21]": {"test_system": "SNB-19 CNS"}, "[22]": {"test_system": "HOP-92 NSCLC"}, "[23]": {"test_system": "ACHN renal"}, "[24]": {"test_system": "NCI-H23 lung"}, "[25]": {"test_system": "SF-268 CNS"}, "[26]": {"test_system": "RPMI-8226 leukemia"}, "[27]": {"test_system": "UACC-257 melanoma"}, "[28]": {"test_system": "UO-31 renal"}, "[29]": {"test_system": "U251 CNS"}, "[30]": {"test_system": "LXFL 529 NSCLC"}, "[31]": {"test_system": "SF-295 CNS"}, "[32]": {"test_system": "A498 renal"}, "[33]": {"test_system": "A549 NSCLC"}, "[34]": {"test_system": "UACC-62 melanoma"}, "[35]": {"test_system": "XF 498 CNS"}, "[36]": {"test_system": "SR leukemia"}, "[37]": {"test_system": "HOP-62 NSCLC"}, "[38]": {"test_system": "DLD-1 colon"}, "[39]": {"test_system": "MALME-3M melanoma"}, "[40]": {"test_system": "NCI-H522 lung"}, "[41]": {"test_system": "COLO 205 colon"}, "[42]": {"test_system": "SNB-75 CNS"}, "[43]": {"test_system": "OVCAR-8 ovarian"}, "[44]": {"test_system": "SN12C renal"}, "[45]": {"test_system": "HCT-15 colon"}, "[46]": {"test_system": "DMS 114 small cell lung"}, "[47]": {"test_system": "RXF 393 renal"}, "[48]": {"test_system": "SW-620 colon"}, "[49]": {"test_system": "SK-MEL-28 melanoma"}, "[50]": {"test_system": "SK-MEL-2 melanoma"}, "[51]": {"test_system": "KM12 colon"}, "[52]": {"test_system": "TK-10 renal"}, "[53]": {"test_system": "RXF-631 renal"}, "[54]": {"test_system": "NCI-H460 lung"}, "[55]": {"test_system": "OVCAR-5 ovarian"}, "[56]": {"test_system": "OVCAR-3 ovarian"}}, "note": "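1) Cells in 96-well plates. 2) Compound, 48 h, 5 concentrations. 3) Linear interpolation between surrounding doses. 4) Unreached endpoint = highest concentration. TGI denotes the concentration required for complete inhibition of growth.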"}
{"smiles": "Cc1occ2c1C(=O)CC1C2[C@@H](O)CC2C(C)(C)CCC[C@]12C", "note": "(stereo not given in full)", "values": [{"measurement": "TGI", "setting": "[1]", "value": "> 100", "unit": "µM"}, {"measurement": "TGI", "setting": "[2]", "value": "> 100", "unit": "µM"}, {"measurement": "TGI", "setting": "[3]", "value": "> 100", "unit": "µM"}, {"measurement": "TGI", "setting": "[4]", "value": "> 100", "unit": "µM"}, {"measurement": "TGI", "setting": "[5]", "value": "> 100", "unit": "µM"}, {"measurement": "TGI", "setting": "[6]", "value": "> 100", "unit": "µM"}, {"measurement": "TGI", "setting": "[7]", "value": "> 100", "unit": "µM"}, {"measurement": "TGI", "setting": "[8]", "value": "> 100", "unit": "µM"}, {"measurement": "TGI", "setting": "[9]", "value": "> 100", "unit": "µM"}, {"measurement": "TGI", "setting": "[10]", "value": "> 100", "unit": "µM"}, {"measurement": "TGI", "setting": "[11]", "value": "> 100", "unit": "µM"}, {"measurement": "TGI", "setting": "[12]", "value": "> 100", "unit": "µM"}, {"measurement": "TGI", "setting": "[13]", "value": "> 100", "unit": "µM"}, {"measurement": "TGI", "setting": "[14]", "value": "> 100", "unit": "µM"}, {"measurement": "TGI", "setting": "[15]", "value": "> 100", "unit": "µM"}, {"measurement": "TGI", "setting": "[16]", "value": "> 100", "unit": "µM"}, {"measurement": "TGI", "setting": "[17]", "value": "> 100", "unit": "µM"}, {"measurement": "TGI", "setting": "[18]", "value": "> 100", "unit": "µM"}, {"measurement": "TGI", "setting": "[19]", "value": "> 100", "unit": "µM"}, {"measurement": "TGI", "setting": "[20]", "value": "> 100", "unit": "µM"}, {"measurement": "TGI", "setting": "[21]", "value": "> 100", "unit": "µM"}, {"measurement": "TGI", "setting": "[22]", "value": "> 100", "unit": "µM"}, {"measurement": "TGI", "setting": "[23]", "value": "> 100", "unit": "µM"}, {"measurement": "TGI", "setting": "[24]", "value": "> 100", "unit": "µM"}, {"measurement": "TGI", "setting": "[25]", "value": "> 100", "unit": "µM"}, {"measurement": "TGI", "setting": "[26]", "value": "> 100", "unit": "µM"}, {"measurement": "TGI", "setting": "[27]", "value": "> 100", "unit": "µM"}, {"measurement": "TGI", "setting": "[28]", "value": "> 100", "unit": "µM"}, {"measurement": "TGI", "setting": "[29]", "value": "> 100", "unit": "µM"}, {"measurement": "TGI", "setting": "[30]", "value": "> 100", "unit": "µM"}, {"measurement": "TGI", "setting": "[31]", "value": "> 100", "unit": "µM"}, {"measurement": "TGI", "setting": "[32]", "value": "> 100", "unit": "µM"}, {"measurement": "TGI", "setting": "[33]", "value": "> 100", "unit": "µM"}, {"measurement": "TGI", "setting": "[34]", "value": "> 100", "unit": "µM"}, {"measurement": "TGI", "setting": "[35]", "value": "> 100", "unit": "µM"}, {"measurement": "TGI", "setting": "[36]", "value": "> 100", "unit": "µM"}, {"measurement": "TGI", "setting": "[37]", "value": "> 100", "unit": "µM"}, {"measurement": "TGI", "setting": "[38]", "value": "> 100", "unit": "µM"}, {"measurement": "TGI", "setting": "[39]", "value": "> 100", "unit": "µM"}, {"measurement": "TGI", "setting": "[40]", "value": "> 100", "unit": "µM"}, {"measurement": "TGI", "setting": "[41]", "value": "> 100", "unit": "µM"}, {"measurement": "TGI", "setting": "[42]", "value": "> 100", "unit": "µM"}, {"measurement": "TGI", "setting": "[43]", "value": "> 100", "unit": "µM"}, {"measurement": "TGI", "setting": "[44]", "value": "> 100", "unit": "µM"}, {"measurement": "TGI", "setting": "[45]", "value": "> 100", "unit": "µM"}, {"measurement": "TGI", "setting": "[46]", "value": "> 100", "unit": "µM"}, {"measurement": "TGI", "setting": "[47]", "value": "> 100", "unit": "µM"}, {"measurement": "TGI", "setting": "[48]", "value": "> 100", "unit": "µM"}, {"measurement": "TGI", "setting": "[49]", "value": "> 100", "unit": "µM"}]}
{"smiles": "CCCCCCCCCCCCCP(=O)(NCC(N)=O)OCC", "note": "(stereo not given)", "values": [{"measurement": "TGI", "setting": "[1]", "value": 31.7, "unit": "µM"}, {"measurement": "TGI", "setting": "[2]", "value": 41.8, "unit": "µM"}, {"measurement": "TGI", "setting": "[4]", "value": 30.6, "unit": "µM"}, {"measurement": "TGI", "setting": "[5]", "value": 41.2, "unit": "µM"}, {"measurement": "TGI", "setting": "[6]", "value": 35.2, "unit": "µM"}, {"measurement": "TGI", "setting": "[50]", "value": 30.3, "unit": "µM"}, {"measurement": "TGI", "setting": "[7]", "value": 29, "unit": "µM"}, {"measurement": "TGI", "setting": "[8]", "value": 39.4, "unit": "µM"}, {"measurement": "TGI", "setting": "[9]", "value": 31.3, "unit": "µM"}, {"measurement": "TGI", "setting": "[10]", "value": 33.5, "unit": "µM"}, {"measurement": "TGI", "setting": "[11]", "value": 38.2, "unit": "µM"}, {"measurement": "TGI", "setting": "[12]", "value": 14.8, "unit": "µM"}, {"measurement": "TGI", "setting": "[13]", "value": 35.3, "unit": "µM"}, {"measurement": "TGI", "setting": "[14]", "value": 47.7, "unit": "µM"}, {"measurement": "TGI", "setting": "[15]", "value": 32.2, "unit": "µM"}, {"measurement": "TGI", "setting": "[17]", "value": 35.3, "unit": "µM"}, {"measurement": "TGI", "setting": "[18]", "value": 32.7, "unit": "µM"}, {"measurement": "TGI", "setting": "[51]", "value": 34, "unit": "µM"}, {"measurement": "TGI", "setting": "[19]", "value": 28, "unit": "µM"}, {"measurement": "TGI", "setting": "[20]", "value": 41, "unit": "µM"}, {"measurement": "TGI", "setting": "[21]", "value": 34.3, "unit": "µM"}, {"measurement": "TGI", "setting": "[22]", "value": 31.1, "unit": "µM"}, {"measurement": "TGI", "setting": "[23]", "value": 47.9, "unit": "µM"}, {"measurement": "TGI", "setting": "[24]", "value": 44, "unit": "µM"}, {"measurement": "TGI", "setting": "[25]", "value": 38.4, "unit": "µM"}, {"measurement": "TGI", "setting": "[27]", "value": 36.1, "unit": "µM"}, {"measurement": "TGI", "setting": "[52]", "value": 37.4, "unit": "µM"}, {"measurement": "TGI", "setting": "[53]", "value": 35.5, "unit": "µM"}, {"measurement": "TGI", "setting": "[28]", "value": 27.1, "unit": "µM"}, {"measurement": "TGI", "setting": "[29]", "value": 33, "unit": "µM"}, {"measurement": "TGI", "setting": "[30]", "value": 30.8, "unit": "µM"}, {"measurement": "TGI", "setting": "[31]", "value": 31.2, "unit": "µM"}, {"measurement": "TGI", "setting": "[32]", "value": 95.7, "unit": "µM"}, {"measurement": "TGI", "setting": "[33]", "value": 40.7, "unit": "µM"}, {"measurement": "TGI", "setting": "[34]", "value": 33, "unit": "µM"}, {"measurement": "TGI", "setting": "[35]", "value": 34.9, "unit": "µM"}, {"measurement": "TGI", "setting": "[54]", "value": 39.8, "unit": "µM"}, {"measurement": "TGI", "setting": "[37]", "value": 32, "unit": "µM"}, {"measurement": "TGI", "setting": "[38]", "value": 32.7, "unit": "µM"}, {"measurement": "TGI", "setting": "[55]", "value": 38.3, "unit": "µM"}, {"measurement": "TGI", "setting": "[39]", "value": 32.6, "unit": "µM"}, {"measurement": "TGI", "setting": "[41]", "value": 34, "unit": "µM"}, {"measurement": "TGI", "setting": "[42]", "value": 19.9, "unit": "µM"}, {"measurement": "TGI", "setting": "[43]", "value": 45.8, "unit": "µM"}, {"measurement": "TGI", "setting": "[56]", "value": 28.9, "unit": "µM"}, {"measurement": "TGI", "setting": "[44]", "value": 34.3, "unit": "µM"}, {"measurement": "TGI", "setting": "[45]", "value": 36, "unit": "µM"}, {"measurement": "TGI", "setting": "[46]", "value": 33.4, "unit": "µM"}, {"measurement": "TGI", "setting": "[47]", "value": 37.7, "unit": "µM"}, {"measurement": "TGI", "setting": "[48]", "value": 41, "unit": "µM"}, {"measurement": "TGI", "setting": "[49]", "value": 32.3, "unit": "µM"}]}
